In ChEMBL document CHEMBL1201862, “PubChem BioAssay data set” (2004):
Values joined by “and” are separate entries in the source; they are usually repeats but may differ in a detail not shown here. Identical values can stand only once.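 48-hour exposure; five concentrations; linearly interpolated endpoints. GI50 is the concentration that inhibits growth by half.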 Active and inactive are the calls of the source. Rule as the data show it: active = GI50 up to about 1.1 µM and inactive = higher.

Key:
Experiment in all cases: growth of human tumour cells (NCI), 48 h
IGROV-1 = system: IGROV-1
MOLT-4 = system: MOLT-4
HCC 2998 = system: HCC 2998
HL-60 = system: HL-60
DLD-1 = system: DLD-1
TK-10 = system: TK-10
SK-MEL-5 = system: SK-MEL-5
ACHN = system: ACHN
HT-29 = system: HT-29
Malme-3M = system: Malme-3M
NCI-H226 = system: NCI-H226
NCI-H460 = system: NCI-H460
SW-620 = system: SW-620
SK-MEL-28 = system: SK-MEL-28
NCI/ADR-RES = system: NCI/ADR-RES
MCF7 = system: MCF7
MDA-N = system: MDA-N
DU-145 = system: DU-145
MDA-MB-231 = system: MDA-MB-231
T47D = system: T47D

Measured: GI50

CC1=C(C(=O)NCc2ccccc2)C(c2ccc(Cl)c(Cl)c2)C(C(=O)NCc2ccccc2)=C(C)N1
inactive: IGROV-1 > 100 µM | MOLT-4 > 100 µM | HCC 2998 > 100 µM | HL-60 > 100 µM | DLD-1 > 100 µM | TK-10 > 100 µM | SK-MEL-5 > 100 µM | ACHN > 100 µM | HT-29 > 100 µM | Malme-3M > 100 µM | NCI-H226 > 100 µM | NCI-H460 > 100 µM | SW-620 > 100 µM | SK-MEL-28 > 100 µM

Cc1cccc(C)c1NC(=O)CCC(=O)/N=C(\N)NC#N
inactive: IGROV-1 > 100 µM | MOLT-4 > 100 µM | HCC 2998 > 100 µM | HL-60 > 100 µM | DLD-1 > 100 µM | TK-10 > 100 µM | SK-MEL-5 > 100 µM | ACHN > 100 µM | HT-29 > 100 µM | Malme-3M > 100 µM | NCI-H226 > 100 µM | NCI-H460 > 100 µM | SW-620 > 100 µM | SK-MEL-28 77.8 µM

O=C1C2C(C(=O)N1c1ccccc1)C1([N+](=O)[O-])C=C3c4ccccc4N(C(=O)c4ccccc4)C32C2C(=O)N(c3ccccc3)C(=O)C21 (configuration not stated)
inactive: IGROV-1 > 100 µM | MOLT-4 > 100 µM | HCC 2998 > 100 µM | HL-60 > 100 µM | DLD-1 > 100 µM | TK-10 > 100 µM | ACHN > 100 µM | HT-29 > 100 µM | Malme-3M > 100 µM | NCI-H460 > 100 µM | SW-620 > 100 µM | SK-MEL-28 > 100 µM

CN1C(=O)C(=CN(C)c2ccccc2)C(=O)N(C)C1=O
inactive: IGROV-1 56.5 µM | MOLT-4 > 100 µM | HCC 2998 > 100 µM | HL-60 51.1 µM | DLD-1 > 100 µM | TK-10 > 100 µM | SK-MEL-5 > 100 µM | ACHN > 100 µM | Malme-3M 36.9 µM | NCI-H226 63.2 µM | NCI-H460 > 100 µM | SW-620 80.5 µM | SK-MEL-28 > 100 µM

CC1CCCC(C(O)CC2CC(=O)N(c3ccccc3)C(=O)C2)C1=O (configuration not stated)
inactive: IGROV-1 > 100 µM | MOLT-4 > 100 µM | HCC 2998 > 100 µM | HL-60 > 100 µM | DLD-1 > 100 µM | TK-10 > 100 µM | ACHN > 100 µM | HT-29 > 100 µM | Malme-3M > 100 µM | NCI-H226 > 100 µM | NCI-H460 > 100 µM | SW-620 > 100 µM | SK-MEL-28 > 100 µM

C\C=C/C=C/C=C/C(=O)O
inactive: IGROV-1 > 100 µM | MOLT-4 > 100 µM | HCC 2998 > 100 µM | HL-60 > 100 µM | DLD-1 > 100 µM | SK-MEL-5 > 100 µM | ACHN > 100 µM | HT-29 > 100 µM | Malme-3M > 100 µM | NCI-H226 > 100 µM | NCI-H460 > 100 µM | SW-620 > 100 µM | SK-MEL-28 > 100 µM

COc1c(O)c2c3c(c(C)cc(O)c3c1O)C(=O)C(O)(C(C)(C)C(C)=O)C2=O (configuration not stated)
inactive: IGROV-1 > 100 µM | MOLT-4 > 100 µM | HL-60 51.4 µM and 50.9 µM | DLD-1 > 100 µM | TK-10 > 100 µM | SK-MEL-5 77.1 µM | ACHN > 100 µM | HT-29 > 100 µM | Malme-3M > 100 µM | NCI-H226 19.3 µM | NCI-H460 > 100 µM | SW-620 > 100 µM | SK-MEL-28 > 100 µM

N#CC1=C(Cl)NC(Cl)=C(C#N)C1c1ccc(Cl)cc1
inactive: IGROV-1 18.2 µM | MOLT-4 18.7 µM | HCC 2998 19.1 µM | HL-60 18.5 µM | DLD-1 17.7 µM | TK-10 18 µM | SK-MEL-5 17 µM | ACHN 17.7 µM | HT-29 16 µM | Malme-3M 21.3 µM | NCI-H226 20.5 µM | NCI-H460 17 µM | SW-620 13.5 µM | SK-MEL-28 22.9 µM

CC1=C(CC2C(=O)N(c3ccccc3)S(=O)(=O)NC2C)C(=O)N(c2ccccc2)S(=O)(=O)N1C (configuration not stated)
inactive: IGROV-1 > 100 µM | MOLT-4 > 100 µM | HCC 2998 > 100 µM | DLD-1 > 100 µM | TK-10 > 100 µM | SK-MEL-5 > 100 µM | ACHN > 100 µM | HT-29 > 100 µM | Malme-3M > 100 µM | NCI-H226 > 100 µM | NCI-H460 > 100 µM | SW-620 > 100 µM | SK-MEL-28 > 100 µM

CCOc1ccccc1NC(=O)C1=C(C)NC(C)=C(C(=O)Nc2ccccc2OCC)C1c1cccc([N+](=O)[O-])c1
inactive: IGROV-1 > 100 µM | MOLT-4 11.8 µM | HCC 2998 36.6 µM | HL-60 30.5 µM | DLD-1 46.8 µM | TK-10 > 100 µM | SK-MEL-5 32.1 µM | ACHN 29.9 µM | HT-29 98.4 µM | Malme-3M 58.3 µM | NCI-H226 80.4 µM | NCI-H460 87.9 µM | SW-620 42.6 µM | SK-MEL-28 > 100 µM

CC(=O)CC(=O)N(CCN(C(=O)CC(C)=O)c1ccccc1)c1ccccc1
inactive: IGROV-1 > 100 µM | MOLT-4 > 100 µM | HCC 2998 > 100 µM | HL-60 43.4 µM | DLD-1 > 100 µM | TK-10 > 100 µM | SK-MEL-5 > 100 µM | ACHN > 100 µM | Malme-3M > 100 µM | NCI-H226 > 100 µM | NCI-H460 > 100 µM | SW-620 > 100 µM | SK-MEL-28 > 100 µM

CC1(O)CC2C(CC1SC1CC3C(CC1(C)O)C3(C)C)C2(C)C (configuration not stated)
inactive: IGROV-1 45 µM | MOLT-4 43.1 µM | HCC 2998 33.6 µM | HL-60 22.9 µM | DLD-1 74.8 µM | TK-10 69.7 µM | SK-MEL-5 11.6 µM | ACHN 35 µM | HT-29 39.6 µM | Malme-3M 29.6 µM | NCI-H226 65.6 µM | NCI-H460 30.7 µM | SK-MEL-28 > 100 µM

COc1cc2c(cc1OC)C1c3ccccc3C(C#N)(C2)N(C(=O)c2ccccc2)C1O (configuration not stated)
inactive: IGROV-1 47.5 µM | MOLT-4 35.2 µM | HCC 2998 > 100 µM | HL-60 42.3 µM | DLD-1 74.1 µM | TK-10 93.1 µM | SK-MEL-5 30.7 µM | ACHN 50 µM | HT-29 > 100 µM | Malme-3M > 100 µM | NCI-H226 61.1 µM | NCI-H460 59.7 µM | SW-620 65 µM | SK-MEL-28 > 100 µM

COC(=O)C1=C(O)c2cc3c(cc2[C@H](c2cc(OC)c(OC)c(OC)c2)C1)OCO3
inactive: IGROV-1 24.4 µM | MOLT-4 24.1 µM | HCC 2998 1.23 µM | HL-60 14.3 µM | DLD-1 34.6 µM | TK-10 34.4 µM | SK-MEL-5 20.8 µM | ACHN 23.1 µM | HT-29 48.1 µM | Malme-3M 38.1 µM | NCI-H226 87.7 µM | NCI-H460 34 µM | SW-620 61.4 µM | SK-MEL-28 39.2 µM

COc1ccc(C2ON(c3cccc(C)n3)CC=C2C)cc1 (configuration not stated)
inactive: IGROV-1 60.8 µM | MOLT-4 36.4 µM | HCC 2998 59.3 µM | HL-60 18 µM | DLD-1 35.7 µM | SK-MEL-5 17.6 µM | ACHN 56 µM | HT-29 32 µM | Malme-3M 36.6 µM | NCI-H226 > 100 µM | NCI-H460 67.9 µM | SW-620 30.6 µM | SK-MEL-28 23.7 µM

CC1(Cl)CC(C)(/C=C/Cl)C(Cl)CC1Cl (configuration not stated)
inactive: IGROV-1 12.9 µM | MOLT-4 14.3 µM | HCC 2998 17.1 µM | DLD-1 16.7 µM | TK-10 26.1 µM | SK-MEL-5 14 µM | ACHN 14.7 µM | HT-29 11.6 µM | Malme-3M 14.9 µM | NCI-H460 14.2 µM | SW-620 15.7 µM | SK-MEL-28 15 µM

CC1=CCCC2C(C=O)(C1)CC(C)C2(CO)CC/C(=C/CO)CO (configuration not stated)
inactive: IGROV-1 > 100 µM | MOLT-4 44.7 µM | HCC 2998 > 100 µM | DLD-1 > 100 µM | TK-10 > 100 µM | SK-MEL-5 > 100 µM | ACHN > 100 µM | HT-29 > 100 µM | Malme-3M > 100 µM | NCI-H226 38.5 µM | NCI-H460 > 100 µM | SW-620 > 100 µM | SK-MEL-28 > 100 µM

Cc1c(C(=O)/C=C/c2ccccc2)[n+]([O-])c2ccccc2[n+]1[O-]
inactive: IGROV-1 17.5 µM | MOLT-4 21.3 µM | HCC 2998 16.6 µM | HL-60 13.9 µM | DLD-1 14.2 µM | TK-10 26.2 µM | ACHN 17.7 µM | HT-29 19.3 µM | Malme-3M 17.7 µM | NCI-H226 20.8 µM | NCI-H460 17.6 µM | SW-620 14.8 µM | SK-MEL-28 16.7 µM

Nc1ccc(S(=O)(=O)Nc2nccs2)cc1 [SULFATHIAZOLE]
inactive: NCI/ADR-RES > 100 µM | IGROV-1 > 100 µM | MOLT-4 > 100 µM | HCC 2998 > 100 µM | HL-60 > 100 µM | TK-10 > 100 µM | MCF7 > 100 µM | MDA-N > 100 µM | DU-145 > 100 µM | SK-MEL-5 > 100 µM | ACHN > 100 µM | HT-29 > 100 µM | Malme-3M > 100 µM | NCI-H226 > 100 µM | NCI-H460 > 100 µM | SW-620 > 100 µM | MDA-MB-231 > 100 µM | SK-MEL-28 > 100 µM | T47D > 100 µM
